Results on 22 compounds are retold here after patent US9708334B2, “Substituted 2,4,5,6-tetrahydropyrrolo[3,4-c]pyrazole and 4,5,6,7-tetrahydro-2H-pyrazolo[4,3-c]pyridine compounds as GlyT1 inhibitors” (DART NEUROSCIENCE (CAYMAN) LTD., priority 2014, dated 2017).

The structures appear in SMILES notation.

For the assay, the target named is T1, GlyT1 (Homo sapiens, UniProt P48067).
T1 construct: expressed in transfected cells
T1 sequence (P48067 1-706): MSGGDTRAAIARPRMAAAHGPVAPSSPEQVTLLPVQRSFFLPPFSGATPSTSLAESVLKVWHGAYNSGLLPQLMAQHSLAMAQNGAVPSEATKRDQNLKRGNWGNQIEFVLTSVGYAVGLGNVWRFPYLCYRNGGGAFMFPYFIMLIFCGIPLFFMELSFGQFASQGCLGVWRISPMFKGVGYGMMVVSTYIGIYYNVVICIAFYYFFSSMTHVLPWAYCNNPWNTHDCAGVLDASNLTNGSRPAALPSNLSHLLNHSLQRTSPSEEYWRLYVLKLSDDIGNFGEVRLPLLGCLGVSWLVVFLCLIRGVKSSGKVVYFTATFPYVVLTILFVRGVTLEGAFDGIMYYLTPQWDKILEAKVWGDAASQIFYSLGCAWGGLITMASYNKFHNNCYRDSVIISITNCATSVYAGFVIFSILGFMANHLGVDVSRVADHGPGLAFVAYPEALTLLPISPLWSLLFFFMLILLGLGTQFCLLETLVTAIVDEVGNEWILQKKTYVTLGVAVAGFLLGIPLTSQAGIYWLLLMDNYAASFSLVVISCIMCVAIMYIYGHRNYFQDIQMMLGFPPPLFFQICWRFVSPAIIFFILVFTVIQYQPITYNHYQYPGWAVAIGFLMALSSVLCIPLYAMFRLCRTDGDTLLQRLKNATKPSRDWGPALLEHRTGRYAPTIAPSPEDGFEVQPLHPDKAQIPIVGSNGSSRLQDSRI
Nature of the assay: Glycine Transporter 1 (GlyT1) uptake assay, scintillation proximity assay of [14C]-glycine uptake. In kind it is cell-based. The note with it: SPA, four parameter logistic fit, read-out: GlyT1 (pIC50) (converted). In outline:
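[14C]-glycine uptake read by scintillation proximity on a plate counter. IC50 from four-parameter logistic fit of dose-response data.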
In general terms: SPA uses beads or plates that emit light when radiolabelled molecules are held near them.
Take `COc1c(C#N)ccc(OC2(C)CC2)c1C(=O)N1Cc2cn(-c3ccc(F)cc3)nc2C1` [Example 525, 3-[2-(4-Fluorophenyl)-2H 4H 5H 6H-pyrrolo[3,4-c]pyrazole-5-carbonyl]-2-methoxy-4-(1-methylcyclopropoxy)benzonitrile]: the IC50 is less than 100 nM.
In the case of `CC(C)(C)COc1ccc(C#N)cc1C(=O)N1Cc2cn(-c3ccc(F)cc3)nc2C1` [Example 526, 4-(2 2-Dimethylpropoxy)-3-[2-(4-fluorophenyl)-2H 4H 5H 6H-pyrrolo[3,4-c]pyrazole-5-carbonyl]benzonitrile], the IC50 is less than 100 nM.
Consider `N#Cc1ccc(OCC(F)F)c(C(=O)N2Cc3cn(-c4ccc(F)cc4)nc3C2)c1` [Example 527, 4-(2 2-Difluoroethoxy)-3-[2-(4-fluorophenyl)-2H 4H 5H 6H-pyrrolo[3,4-c]pyrazole-5-carbonyl]benzonitrile], for which the IC50 was 1000 to 10000 nM.
Then `N#Cc1ccc(OCC(F)(F)F)c(C(=O)N2Cc3cn(-c4ccc(F)cc4)nc3C2)c1` [Example 528, 3-[2-(4-Fluorophenyl)-2H 4H 5H 6H-pyrrolo[3,4-c]pyrazole-5-carbonyl]-4-(2 2 2-trifluoroethoxy)benzonitrile], with 100 to 1000 nM.
Then `CC(C)Oc1ccc(C#N)cc1C(=O)N1Cc2cn(-c3ccc(F)cc3)nc2C1` [Example 529, 3-[2-(4-Fluorophenyl)-2H 4H 5H 6H-pyrrolo[3,4-c]pyrazole-5-carbonyl]-4-(propan-2-yloxy)benzonitrile], with 100 to 1000 nM.
Then `C[C@H](Oc1ccc(C#N)cc1C(=O)N1Cc2cn(-c3ccc(F)cc3)nc2C1)C(F)(F)F` [Example 530, 3-[2-(4-Fluorophenyl)-2H 4H 5H 6H-pyrrolo[3,4-c]pyrazole-5-carbonyl]-4-{[(2S)-1 1 1-trifluoropropan-2-yl]oxy}benzonitrile], with 100 to 1000 nM; and `N#Cc1ccc(OCC2CC2)c(C(=O)N2Cc3cn(-c4ccc(F)cc4)nc3C2)c1` [Example 531, 4-(Cyclopropylmethoxy)-3-[2-(4-fluorophenyl)-2H 4H 5H 6H-pyrrolo[3,4-c]pyrazole-5-carbonyl]benzonitrile], with 100 to 1000 nM; and `CC(C)(Oc1ccc(C#N)cc1C(=O)N1Cc2cn(-c3ccc(F)cc3)nc2C1)C(F)(F)F` [Example 532, 3-[2-(4-Fluorophenyl)-2H 4H 5H 6H-pyrrolo[3,4-c]pyrazole-5-carbonyl]-4-[(1 1 1-trifluoro-2-methylpropan-2-yl)oxy]benzonitrile], with 100 to 1000 nM.
As for `COc1c(C#N)ccc(OCC(F)(F)F)c1C(=O)N1Cc2cn(-c3ccc(F)c(C)n3)nc2C1` [Example 533, 3-[2-(5-Fluoro-6-methylpyridin-2-yl)-2H 4H 5H 6H-pyrrolo[3,4-c]pyrazole-5-carbonyl]-2-methoxy-4-(2 2 2-trifluoroethoxy)benzonitrile], the IC50 was less than 100 nM.
The result for `COc1c(C#N)ccc(OCC(F)F)c1C(=O)N1Cc2cn(-c3ccc(F)c(C)n3)nc2C1` [Example 534, 4-(2 2-Difluoroethoxy)-3-[2-(5-fluoro-6-methylpyridin-2-yl)-2H 4H 5H 6H-pyrrolo[3,4-c]pyrazole-5-carbonyl]-2-methoxybenzonitrile] reads 100 to 1000 nM; that for `COc1c(C#N)ccc(OC(C)C)c1C(=O)N1Cc2cn(-c3ccc(F)c(C)n3)nc2C1` [Example 535, 3-[2-(5-Fluoro-6-methylpyridin-2-yl)-2H 4H 5H 6H-pyrrolo[3,4-c]pyrazole-5-carbonyl]-2-methoxy-4-(propan-2-yloxy)benzonitrile], less than 100 nM.
Then `COc1c(C#N)ccc(OCC2(C)COC2)c1C(=O)N1Cc2cn(-c3ccc(F)c(C)n3)nc2C1` [Example 536, 3-[2-(5-Fluoro-6-methylpyridin-2-yl)-2H 4H 5H 6H-pyrrolo[3,4-c]pyrazole-5-carbonyl]-2-methoxy-4-[(3-methyloxetan-3-yl)methoxy]benzonitrile], with 100 to 1000 nM.
For the compound `COc1c(C#N)ccc(OC2COC2)c1C(=O)N1Cc2cn(-c3ccc(F)c(C)n3)nc2C1` [Example 537, 3-[2-(5-Fluoro-6-methylpyridin-2-yl)-2H 4H 5H 6H-pyrrolo[3,4-c]pyrazole-5-carbonyl]-2-methoxy-4-(oxetan-3-yloxy)benzonitrile], the IC50 is 100 to 1000 nM.
Regarding `Cc1cc(-n2cc3c(n2)CN(C(=O)c2cc(C#N)ccc2OCC2(C)COC2)C3)ccn1` [Example 538, 4-[(3-Methyloxetan-3-yl)methoxy]-3-[2-(2-methylpyridin-4-yl)-2H 4H 5H 6H-pyrrolo[3,4-c]pyrazole-5-carbonyl]benzonitrile], the IC50 is 1000 to 10000 nM.
Turning to `Cc1cc(-n2cc3c(n2)CN(C(=O)c2cc(C#N)ccc2OCC(F)(F)F)C3)ccn1` [Example 539, 3-[2-(2-Methylpyridin-4-yl)-2H 4H 5H 6H-pyrrolo[3,4-c]pyrazole-5-carbonyl]-4-(2 2 2-trifluoroethoxy)benzonitrile], the IC50 was 100 to 1000 nM.
Take `Cc1cc(-n2cc3c(n2)CN(C(=O)c2cc(C#N)ccc2OCC2CC2)C3)ccn1` [Example 540, 4-(Cyclopropylmethoxy)-3-[2-(2-methylpyridin-4-yl)-2H 4H 5H 6H-pyrrolo[3,4-c]pyrazole-5-carbonyl]benzonitrile]: the IC50 is less than 100 nM.
Consider `Cc1cc(-n2cc3c(n2)CN(C(=O)c2cc(C#N)ccc2OC(C)(C)C(F)(F)F)C3)ccn1` [Example 542, 3-[2-(2-Methylpyridin-4-yl)-2H 4H 5H 6H-pyrrolo[3,4-c]pyrazole-5-carbonyl]-4-[(1 1 1-trifluoro-2-methylpropan-2-yl)oxy]benzonitrile], for which the IC50 is less than 100 nM.
Take `CCc1cc(-n2cc3c(n2)CN(C(=O)c2cc(C#N)ccc2OCC(F)(F)F)C3)ccn1` [Example 543, 3-[2-(2-Ethylpyridin-4-yl)-2H 4H 5H 6H-pyrrolo[3,4-c]pyrazole-5-carbonyl]-4-(2 2 2-trifluoroethoxy)benzonitrile]: the IC50 was 100 to 1000 nM.
The result for `CCc1cc(-n2cc3c(n2)CN(C(=O)c2cc(C#N)ccc2OCC2CC2)C3)ccn1` [Example 544, 4-(Cyclopropylmethoxy)-3-[2-(2-ethylpyridin-4-yl)-2H 4H 5H 6H-pyrrolo[3,4-c]pyrazole-5-carbonyl]benzonitrile] reads 100 to 1000 nM; that for `CCc1cc(-n2cc3c(n2)CN(C(=O)c2cc(C#N)ccc2OCC(F)F)C3)ccn1` [Example 545, 4-(2 2-Difluoroethoxy)-3-[2-(2-ethylpyridin-4-yl)-2H 4H 5H 6H-pyrrolo[3,4-c]pyrazole-5-carbonyl]benzonitrile], 100 to 1000 nM; that for `CCc1cc(-n2cc3c(n2)CN(C(=O)c2cc(C#N)ccc2N2CCC(F)(F)CC2)C3)ccn1` [Example 546, 4-(4 4-Difluoropiperidin-1-yl)-3-[2-(2-ethylpyridin-4-yl)-2H 4H 5H 6H-pyrrolo[3,4-c]pyrazole-5-carbonyl]benzonitrile], less than 100 nM.
On to `CS(=O)(=O)c1ccc(-c2ccc(C(F)(F)F)nc2)c(C(=O)N2Cc3cn(-c4ccccc4F)nc3C2)c1` [Example 547, 5-{2-[2-(2-Fluorophenyl)-2H 4H 5H 6H-pyrrolo[3,4-c]pyrazole-5-carbonyl]-4-methanesulfonylphenyl}-2-(trifluoromethyl)pyridine], for which the IC50 was 100 to 1000 nM.
